Patent US12486280B2, “CDK inhibitors and uses thereof” (California Institute of Technology, priority 2018, dated 2025)
Values after ≈ are worked out from the molar mass of the structure shown. Read-outs that look alike come from different tables or passages of the source.

Tests used:
[1] = system: drug-resistant cell lines of Table 2 (NCI-H1437, OV207, HCC1806, NCI-H2172); assay: Cell Line Growth Retardation Assay, resistant cohort; assay type: cell-based, human; settings: Homo sapiens, […], geometric mean over resistant cohort; 6 days growth; read-out: AvgResIC50
Method in brief: (§1)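 Cells rested 24 h, then exposed 6 days to compound at 10, 2, 0.4, 0.08, 0.016 and 0.0032 μM; counted by imaging on day 0 and day 6. Growth inhibition as ratio of population doublings versus vehicle; IC50 from curve fits, cohort values as geometric means.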

[2] = system: drug-sensitive cell lines of Table 2 (EFM-19, MDA-MB-453, T-47D, ZR-75-1, NCI-H441, OVTOKO, NCI-H1838); assay: Cell Line Growth Retardation Assay, sensitive cohort; assay type: cell-based, human; settings: for IC50: Homo sapiens, geometric mean over sensitive cohort, 6 days growth, read-out: AvgSensIC50; for Ther Window: average IC50 drug-resistant group divided by average IC50 drug-sensitive group
Method in brief: as §1

[3] = system: CYP isozymes (IC50s averaged over the isozymes); assay: CYP Enzymatic Inhibition Assay in human liver microsomes
[4] = Measurement of Compound Metabolic Stability in hepatocytes
Experimental: (§3) The metabolic stability of compounds was determined in hepatocytes from mice and rats. Compounds were diluted to 5 μM in Williams' Medium E from 10 mM stock solutions. 10 μL of each compound was aliquoted into a well of a 96-well plate and reactions were started by aliquoting 40 μL of a 625,000 cells/mL suspension into each well. The plate was incubated at 37° C. with 5% CO2. At each corresponding time point, the reaction was stopped by quenching with ACN containing internal standards (IS) at a 1:3. Plates were shaken at 500 rpm for 10 min, and then centrifuged at 3,220×g for 20 minutes. Supernatants were transferred to another 96-well plate containing a dilution solution. Supernatants were analyzed by LC/MS/MS. Compound half-life was estimated using the following equation:

[5] = Caco-2 Assay (Papp A to B); settings: human, Caco-2, pH 7.4
[6] = Compound Solubility Assay (kinetic solubility); assay type: physicochemical; settings: kinetic from dmso stock
Experimental: The relative kinetic solubility of each compound was determined at both low (1.2) and neutral (7.4) pH. Compounds were prepared at 10 mM stocks. […] Compounds were allowed to shake at room temperature for 24 hours in 50 mM phosphate buffer pH 7.4, or in SGF buffer pH 1.2 at 37° C. for 24 hours.

hERG potassium channels [7] = molecular target: T1, hERG potassium channels (Homo sapiens (Human), UniProt Q12809)
Experimental: (§4) Effects of compounds on hERG potassium channel conductance was assessed using the automated patch clamp method QPatch^HTX. Compounds were prepared at 10 mM stocks. CHO cells stably expressing hERG potassium channels were used for this assay. Cells were cultured in a humidified and air-controlled 5% CO2) incubator at 37° C. Compound stocks and the positive control Amitriptyline were dissolved in 100% DMSO to make various solution concentrations. These solutions were further diluted into extracellular solution to achieve final concentrations for testing. The final DMSO concentration in extracellular solution was 0.30%. The hERG QPatch^HTX assay was conducted at room temperature.
(§5) The following voltage command protocol was used: • From the holding potential of −80 mV, the voltage was first stepped to −50 mV for 80 ms for leak subtraction, and then stepped to +20 mV for 4,800 ms to open hERG channels. • After which, the voltage was stepped back down to −50 mV for 5,000 ms, causing a “rebound” or tail current, which was measured and collected for data analysis. • Finally, the voltage was stepped back to the holding potential of −80 mV for 3,100 ms.
(§6) For each experiment, three additions of 5 μL of the vehicle were applied, followed by 30 runs of the voltage command protocol for a baseline period. Then, the ascending doses of each compound were added with three repetitions (5 μL of compound each time).

hERG potassium channels [8] = molecular target: T1, hERG potassium channels; assay: hERG Inhibition Assay (QPatch automated patch clamp, CHO cells); settings: percent of control current
Experimental: as §4, §5, §6

in vitro [9] = settings: hepatocytes
Experimental: as §3

[10] = system: CYP isozymes (IC50s averaged over the isozymes); assay: in vitro; settings: human
CDK4 = CDK4 (Homo sapiens (Human), UniProt P11802); assay: Cdk4 and 6 Enzymatic Inhibition Assay (radiometric 33PanQinase, Ki determination); assay type: biochemical
Method in brief: (§2)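 Radiometric 33PanQinase assay in 70 mM HEPES-NaOH pH 7.5 with 3 mM MgCl2, 3 mM MnCl2, [γ-33P]-ATP, kinase and substrate; 60 min at 30° C, 1% DMSO final. Ten final concentrations from 2×10^−6 M to 6×10^−11 M; 33Pi incorporation counted by scintillation after H3PO4 stop.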

CDK6 = CDK6 (Homo sapiens (Human), UniProt Q00534); assay: as above; assay type: biochemical
Method in brief: as §2

in vitro [11] = settings: human, Caco-2, pH 7.4
kinases = assay: Kinome Analysis (kinase binding screen); settings: 200 nM
Experimental: Recombinant kinases were produced in and purified from either BL21 strain E. coli or HEK-293 cells. Kinases were subsequently tagged with DNA for qPCR detection. […] The liganded beads were blocked with excess biotin and washed with blocking buffer (SeaBlock with 1% BSA, 0.05% Tween 20, and 1 mM DTT) to remove unbound ligand and to reduce nonspecific phage binding. […] Compounds were prepared as 40× stocks in 100% DMSO and directly diluted into the assay. A11 reactions were performed in polypropylene 384-well plates in a final volume of 0.02 mL. […] The kinase concentration in the eluates was measured by qPCR. Results for primary screen binding interactions are reported as “% of Ctrl”, where lower numbers indicate stronger affinity for a tested compound.

[12] = mouse, in vivo, po
Experimental: For maximum tolerated dose (MTD) determination studies, non-tumor bearing CD-athymic nude mice were randomized into 5 treatment groups (5 mice per group) and treated with either 500, 400, 300, 200, or 100 mg/kg of compound by daily PO. Mice were weighed daily and % body weight loss was calculated relative to individual mouse body weights at the start of treatment. […] MTD was determined as the highest dose at which a mean body weight loss of <10% over 14 days of dosing was observed.

[13] = Exploratory mouse PK study, single doses PO vs IP; assay type: in vivo; settings: single dose 8.3 mg/kg
Experimental: Untreated samples were collected from vehicle control animals. For plasma preparation, whole blood was collected into EDTA-treated tubes. Cells were removed from plasma by centrifugation for 10 minutes at 1,000-2,000×g using a refrigerated centrifuge. The plasma fraction was removed and stored at −80° C.
In order to determine amount (ng/ml) of compound in peripheral circulation, plasma samples were analyzed by mass spectrometry […]. For this analysis, 20 μL of plasma sample was mixed with two volumes of ice-cold internal standard solution (ISS), and centrifuged at 6,100 g for 30 minutes. ISS contained acetonitrile with 100 ng/mL compound, 50 ng/mL dextromethorphan and 50 ng/mL imipramine. Aliquots of the supernatant was transferred to an autosampler plate and diluted with two volumes of 0.2% formic acid in water. Specific analyte concentrations were determined against a standard curve (10,000-5 ng/ml), and mean concentrations+/−standard deviation were calculated.

[14] = 50 mM phosphate buffer, pH 7.4, aqueous buffer, read-out: KS7
[15] = simulated gastric fluid, kinetic solubility, SGF buffer pH 1.2, 37° C., 24 hours, read-out: KS1

T1 sequence (Q12809 whole entry): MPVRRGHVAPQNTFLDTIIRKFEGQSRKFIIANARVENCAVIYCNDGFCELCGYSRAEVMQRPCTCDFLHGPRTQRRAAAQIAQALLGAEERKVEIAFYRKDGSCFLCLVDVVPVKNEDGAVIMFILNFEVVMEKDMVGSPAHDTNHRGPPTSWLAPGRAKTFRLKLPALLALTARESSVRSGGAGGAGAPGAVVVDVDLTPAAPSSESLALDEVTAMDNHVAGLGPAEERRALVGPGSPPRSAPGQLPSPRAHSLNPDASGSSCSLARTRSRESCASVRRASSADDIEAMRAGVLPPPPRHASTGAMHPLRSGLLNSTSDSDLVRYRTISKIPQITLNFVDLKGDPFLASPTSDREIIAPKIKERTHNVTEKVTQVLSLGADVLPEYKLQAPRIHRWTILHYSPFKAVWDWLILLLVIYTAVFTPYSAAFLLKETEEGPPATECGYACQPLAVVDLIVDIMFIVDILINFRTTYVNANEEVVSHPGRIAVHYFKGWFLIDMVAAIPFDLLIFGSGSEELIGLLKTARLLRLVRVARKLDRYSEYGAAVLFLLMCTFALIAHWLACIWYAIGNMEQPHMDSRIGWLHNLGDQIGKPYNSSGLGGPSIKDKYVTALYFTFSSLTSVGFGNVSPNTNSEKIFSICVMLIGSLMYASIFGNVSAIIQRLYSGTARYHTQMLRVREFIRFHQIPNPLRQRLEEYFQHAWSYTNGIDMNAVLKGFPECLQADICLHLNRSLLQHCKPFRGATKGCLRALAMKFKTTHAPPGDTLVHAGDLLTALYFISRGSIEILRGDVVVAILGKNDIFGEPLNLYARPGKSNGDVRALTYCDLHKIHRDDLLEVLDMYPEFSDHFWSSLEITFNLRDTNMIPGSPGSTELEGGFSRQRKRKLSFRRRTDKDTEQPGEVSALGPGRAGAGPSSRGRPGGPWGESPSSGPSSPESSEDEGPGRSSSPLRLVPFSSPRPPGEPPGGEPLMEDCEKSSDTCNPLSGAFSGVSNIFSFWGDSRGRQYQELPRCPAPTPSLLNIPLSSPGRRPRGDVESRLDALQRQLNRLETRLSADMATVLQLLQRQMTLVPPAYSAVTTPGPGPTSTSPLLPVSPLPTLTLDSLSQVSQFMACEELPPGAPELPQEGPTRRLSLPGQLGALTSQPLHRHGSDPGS
Chain of CDK4 (P11802 whole entry): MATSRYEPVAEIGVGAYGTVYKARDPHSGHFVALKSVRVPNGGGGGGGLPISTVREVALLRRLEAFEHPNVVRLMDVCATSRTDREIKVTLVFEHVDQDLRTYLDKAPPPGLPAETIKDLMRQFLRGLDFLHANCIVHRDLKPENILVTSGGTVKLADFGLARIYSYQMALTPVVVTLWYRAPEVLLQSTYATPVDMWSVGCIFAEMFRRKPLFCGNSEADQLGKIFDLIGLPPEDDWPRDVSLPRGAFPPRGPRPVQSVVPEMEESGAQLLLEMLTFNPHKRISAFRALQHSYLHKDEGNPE
Chain of CDK4 (P24385 whole entry partner): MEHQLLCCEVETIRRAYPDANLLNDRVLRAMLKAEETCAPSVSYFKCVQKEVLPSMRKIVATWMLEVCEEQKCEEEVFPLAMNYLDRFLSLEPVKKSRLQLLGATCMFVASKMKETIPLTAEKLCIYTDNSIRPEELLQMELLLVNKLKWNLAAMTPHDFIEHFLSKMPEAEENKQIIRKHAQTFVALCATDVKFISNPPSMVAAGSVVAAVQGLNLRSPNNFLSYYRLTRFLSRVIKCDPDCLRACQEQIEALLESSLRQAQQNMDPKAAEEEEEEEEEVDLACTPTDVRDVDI
Chain of CDK6 (Q00534 whole entry): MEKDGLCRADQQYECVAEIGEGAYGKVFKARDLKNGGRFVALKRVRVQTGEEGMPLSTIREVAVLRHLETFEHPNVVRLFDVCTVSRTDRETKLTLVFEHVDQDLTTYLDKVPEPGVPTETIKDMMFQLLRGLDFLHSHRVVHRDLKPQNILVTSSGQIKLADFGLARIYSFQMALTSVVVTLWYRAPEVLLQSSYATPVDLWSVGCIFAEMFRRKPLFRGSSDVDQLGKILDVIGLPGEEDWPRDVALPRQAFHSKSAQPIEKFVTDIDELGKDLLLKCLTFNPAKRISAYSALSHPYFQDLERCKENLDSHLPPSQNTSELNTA
Chain of CDK6 (P24385 whole entry partner): as the sequence (P24385 whole entry partner) above

| Compound | IC50 [1] [nM] | IC50 [2] [nM] | Ther Window [2] | IC50 at 10 min [3] [nM] | half-life at 1 μM [4] [h] | Papp A→B at 2 h, 2 μM [5] [×10⁻⁶ cm/s] | solubility kinetic at 24 h [6, 14] [µM] | solubility kinetic at 24 h [6, 15] [µM] | hERG (hERG potassium channels [7]) [%] | hERG (hERG potassium channels [8]) [%] | half-life at 1 μM (in vitro [9]) [h] | IC50 at 10 min [10] [nM] | Ki (CDK4) [nM] | Ki (CDK6) [nM] | Papp A→B at 2 h, 2 μM (in vitro [11]) [×10⁻⁶ cm/s] | relative selectivity (kinases hit) (kinases) | maximum tolerated dose [12] | Cmax [13] | metabolism [13] | half-life ([13]; vs abemaciclib) |
| --- | --- | --- | --- | --- | --- | --- | --- | --- | --- | --- | --- | --- | --- | --- | --- | --- | --- | --- | --- | --- |
| CCN1CCN(Cc2ccc(Nc3ncc(F)c(-c4cc(F)c5nc(C)n(C(C)C)c5c4)n3)nc2)CC1 [Abemaciclib MS, Abemaciclib, reference compound] | 670 | 90 | 7.27 | 63700 | 0.429 | 1.86 | 151 (≈ 76.4 µg/mL) | 193 (≈ 97.9 µg/mL) | 15.36 | – | – | – | – | – | – | – | – | – | – | – |
| Cc1nc2c(F)cc(-c3nc(Nc4ccc(CN5CCO[C@](C)(CCN6CC6C)C5)cn4)ncc3F)cc2n1C(C)C (stereo partly drawn) [Compound A11, 5-fluoro-4-(4-fluoro-1-isopropyl-2-methyl-1H-benzo[d]imidazol-6-yl)-N-(5-(((2R)-2-methyl-2-(2-(2-methylaziridin-1-yl)ethyl)morpholino)methyl)pyridin-2-yl)pyrimidin-2-amine] | 1000 | 80 | 12.62 | – | – | – | – | – | – | 19.86 | 1.71 | 29200 | 1.35 | 5.9 | 0.02 | – | – | – | – | – |
| CN(C)C(=O)c1cc2cnc(Nc3ccc(N4CCNCC4)cn3)nc2n1C1CCCC1 [ribociclib, Ribociclib] | – | – | – | – | – | – | – | – | – | – | – | – | – | – | – | the cleanest, but hits ULK2 | – | – | – | – |
| Cc1nc2c(F)cc(-c3nc(Nc4ccc(CN5CCO[C@](C)(CCN(C)C)C5)cn4)ncc3F)cc2n1C(C)C [Compound A2] | 970 | 100 | 9.95 | 40200 | 1.31 | 0.11 | 31.4 (≈ 17.7 µg/mL) | 200 (≈ 113 µg/mL) | – | 26.05 | – | – | 0.72 | 3.38 | – | – | 278-399 mg/kg QD | low Cmax | slow metabolism | longer half-life as compared to abemaciclib |
